Experimental data from patent publication US4962119A, “Triazole derivatives of fenamates as antiinflammatory agents” (Warner-Lambert Company, priority 1989, dated 1990).

Tested on: 5-Lipoxygenase
Assay: ARBL whole cell 5-lipoxygenase assay (inhibition of LTB4 formation in RBL-1 cells, RIA)
Format: cell-based, rat
Settings: calcium ionophore A23187 (5 μM)
Excerpt: ARBL/ARBC Whole Cell 5-Lipoxygenase and Cyclcoxygenase Assays
Cells are harvested by centrifugation.

SMILES: FC(F)(F)c1cccc(Nc2ccccc2-c2n[nH]c(=S)[nH]2)c1 [Example 4, 5-[2-[(3-trifluoromethylphenyl)amino]phenyl]-2,4-dihydro-3H-1,2,4-triazole-3-thione]
- ARBL: % inhibition of LTB4 at 16 μM: N (Less than 40% inhibiton)
